Measurements taken from patent US4486419A, “5,2',3',4',4",6"-Hexadeoxykanamycin and its 1-N-acylated derivative” (Zaidan Hojin Biseibutsu Kagaku Kenkyu Kai, priority 1982, dated 1984).
Converted amounts (≈) assume the structure as drawn.

What was measured:
Type in all cases: cell-based
[1] = system: Staphylococcus aureus Ap01; conditions: nutrient agar, 37° C., 18 hours
Bacillus anthracis = assay: microbe, parasite or virus in culture; conditions: 18 h
Escherichia coli NIHJ = conditions: nutrient agar, 37° C., 18 hours
Escherichia coli K-12 R5 = conditions: K12R5, 18 h
[2] = system: Escherichia coli K-12 ML 1630; conditions: K12ML1630, nutrient agar, 37° C., 18 hours
[3] = system: Escherichia coli K-12 ML 1410; conditions: K12ML1410, nutrient agar, 37° C., 18 hours
[4] = system: Escherichia coli K-12 LA 290 R56; assay: microbe, parasite or virus in culture; conditions: K12LA290R56, 18 h
[5] = system: Shigella dysenteriae JS 11910; conditions: JS11910, 18 h
Salmonella typhi T-63 = conditions: Salmonella enterica, 18 h
Proteus rettgeri GN311 = conditions: Providencia rettgeri, nutrient agar, 37° C., 18 hours
[6] = system: Pseudomonas aeruginosa TI-13; conditions: TI13, nutrient agar, 37° C., 18 hours
[7] = system: Pseudomonas aeruginosa 21-75; conditions: 2175, nutrient agar, 37° C., 18 hours
bacterial strains = assay: antibacterial activity (in words)
[8] = system: kanamycin-resistant bacteria; assay: antibacterial activity against kanamycin-resistant bacteria (in words); conditions: even with the kanamycin-resistant bacteria

| Structure (SMILES) | MIC [1] [µg/mL] | MIC (Bacillus anthracis) [µg/mL] | MIC (Escherichia coli NIHJ) [µg/mL] | MIC (Escherichia coli K-12 R5) [µg/mL] | MIC [2] [µg/mL] | MIC [3] [µg/mL] | MIC [4] [µg/mL] | MIC [5] [µg/mL] | MIC (Salmonella typhi T-63) [µg/mL] | MIC (Proteus rettgeri GN311) [µg/mL] | MIC [6] [µg/mL] | MIC [7] [µg/mL] | antibacterial activity (bacterial strains) | antibacterial activity compared with amikacin [8] |
| --- | --- | --- | --- | --- | --- | --- | --- | --- | --- | --- | --- | --- | --- | --- |
| C[C@@H]1C[C@H](N)[C@@H](O)[C@@H](O[C@@H]2C[C@H](O[C@@H]3CCC[C@@H](CN)O3)[C@@H](N)C[C@H]2N)O1 [Hexadeoxykanamycin, 5,2',3',4',4",6"-hexadeoxykanamycin] | 3.13 (≈ 8.06 µM) | 1.56 (≈ 4.02 µM) | 3.13 (≈ 8.06 µM) | > 100 | 25 (≈ 64.3 µM) | 3.13 (≈ 8.06 µM) | 12.5 (≈ 32.2 µM) | 6.25 (≈ 16.1 µM) | 0.78 (≈ 2.01 µM) | 0.78 (≈ 2.01 µM) | 50 (≈ 129 µM) | > 100 | antibacterial activity as high as that of the parent kanamycin A | – |
| NCC[C@H](O)C(=O)N[C@@H]1C[C@H](N)[C@@H](O[C@H]2O[C@H](CN)[C@@H](O)[C@H](O)[C@H]2O)[C@H](O)[C@H]1O[C@H]1O[C@H](CO)[C@@H](O)[C@H](N)[C@H]1O [Amikacin, 1-N-[(S)-4-amino-2-hydroxybutyryl]kanamycin A, reference compound] | 1.56 (≈ 2.66 µM) | 0.78 (≈ 1.33 µM) | 1.56 (≈ 2.66 µM) | 100 (≈ 171 µM) | 3.13 (≈ 5.34 µM) | 1.56 (≈ 2.66 µM) | 0.78 (≈ 1.33 µM) | 3.13 (≈ 5.34 µM) | 0.39 (≈ 0.666 µM) | 0.39 (≈ 0.666 µM) | 3.13 (≈ 5.34 µM) | 12.5 (≈ 21.3 µM) | – | – |
| C[C@@H]1C[C@H](N)[C@@H](O)[C@@H](O[C@@H]2C[C@H](O[C@@H]3CCC[C@@H](CN)O3)[C@@H](N)C[C@H]2NC(=O)[C@@H](O)CCN)O1 [Hexadeoxyamikacin, 1-N-[(S)-4-amino-2-hydroxybutyryl]-5,2',3',4',4",6"-hexadeoxykanamycin] | 3.13 (≈ 6.39 µM) | 1.56 (≈ 3.19 µM) | 1.56 (≈ 3.19 µM) | 100 (≈ 204 µM) | 3.13 (≈ 6.39 µM) | 3.13 (≈ 6.39 µM) | 1.56 (≈ 3.19 µM) | 6.25 (≈ 12.8 µM) | 0.78 (≈ 1.59 µM) | 1.56 (≈ 3.19 µM) | 12.5 (≈ 25.5 µM) | 100 (≈ 204 µM) | – | antibacterial activity as high as that of amikacin |
